Entries after “also recorded” stand apart in the source; their conditions may differ.
Test system: miR-499, miR-208b, Myh6, Myh7, Myh7b, HP1β
Assay: Cardiac tissue markers by real-time PCR, Northern and Western blot, 4% NaCl diet (Example 1)
Assay type: in vivo, rat
Conditions: 4% NaCl HS diet
Excerpt: This regulation of miR-499 and miR-208b was confirmed by Northern blot analysis (FIG. 2B).
To assess the regulation of the myosin host genes, we examined Myh6, Myh7, and Myh7b mRNA levels.
For in vivo real-time PCR analysis, RNA was extracted from cardiac tissue using Trizol (Invitrogen) after which two μg RNA from each tissue sample was used to generate cDNA using Super Script II reverse transcriptase per manufacturer's specifications (Invitrogen). To detect the level of miR-208 RT-PCR was performed using the Taqman MicroRNA assay (Applied Biosystems, ABI) according the manufacturer's recommendations, using 10-100 ng of total RNA. The expression of a subset of genes was analyzed by quantitative real time PCR using Taqman probes purchased from ABI.
Total RNA was isolated from cardiac tissue samples by using Trizol reagent (Gibco/BRL). Northern blots to detect microRNAs were performed as described previously described. A U6 probe served as a loading control (IDT). 10 μg of total RNA from cardiomyocytes or heart tissue was loaded on 20% acrylamide denaturing gels and transferred to Zeta-probe GT genomic blotting membranes (Bio-Rad) by electrophoresis. After transfer, the blots were cross-linked and baked at 80° C. for 1 hr. To maximize the sensitivity of miRNA detection, oligonucleotide probes were labeled with the Starfire Oligos Kit (IDT, Coralville, Iowa) and α-^32P dATP (Amersham or Perkin Elmer). Probes were hybridized to the membranes overnight at 39° C. in Rapid-hyb buffer (Amersham), after which they were washed twice for 10 minutes at 39° C. with 0.5×SSC containing 0.1% SDS. The blots were exposed and quantified by PhosphorImager analysis (GE HealthCare Life Sciences) and a U6 probe served as a loading control (ABI). The intensity of the radioactive signal was used to quantify the fold change in expression using a phosphorimager and ImageQuant (Bio-Rad).
Western blot analysis. For Western blot analysis, Myosin was extracted from cardiac cells or tissue as described (H-amalainen, N. & Pette, D. Patterns of myosin isoforms in mammalian skeletal muscle fibres. Microsc Res Tech 30, 381-389 (1995)). MHC isoforms were detected by loading 0.1 ug protein lysate on a 4-15% gradient gel and separated by SDS PAGE and Western blotting was performed with mouse monoclonal anti-myosin (slow, skeletal M8421) (Sigma, Mo.), which is highly specific for Myh7.

[1] = real-time PCR, Northern blot, listed as anti-miR-208a
[2] = real-time PCR, listed as AntimiR-208a
[3] = real-time PCR, listed as anti-miR-208a

**Q.** “M-10101: antimiR targeting bases 2 to 17 of mature miR-208a, LNA and DNA linked by phosphorothioate bonds; 5′-CTTTTTGCTCGTCTTA-3′ (SEQ ID NO: 12) (all phosphorothioate, sugars by position and methylation of C not given here; LNA/DNA mixmer; listed as Homo sapiens)” was tested. Which “HP1β (miR-208a target) protein, Western blot” value (listed as anti-miR-208a) did it give?
**A.** Its value is “target depression”.

**Q.** What about the “Myh7 protein, Western blot of ventricular tissue” value (listed as anti-miR-208a) of the same substance?
**A.** Its value is “dose-dependent regulation of Myh7 was confirmed”.

**Q.** And the “Myh7 protein, Western blot of ventricular tissue” value (listed as antimiR-208a)?
**A.** Its value is “dose-dependent reduction”.

**Q.** What about the “miR-208b level in cardiac tissue” value [1] of the same substance?
**A.** Its value is “dose-dependent decrease in miR-208b levels”.

**Q.** What about the “miR-499 expression in cardiac tissue” value [1] of the same substance?
**A.** Its value is “dose-dependent decrease in expression; also recorded: dose-dependent reduction in miR-499”.

**Q.** What about the “miR-208b level in cardiac tissue” value (real-time PCR, Northern blot, listed as antimiR-208a) of the same substance?
**A.** Its value is “significantly blunts this response”.

**Q.** What about the “Myh6 mRNA in cardiac tissue” value [2] of the same substance?
**A.** The value was “dose-dependently increases Myh6 expression”.

**Q.** And the “Myh7b mRNA in cardiac tissue” value [2]?
**A.** The value was “reduces Myh7b expression”.

**Q.** What about the “Myh7 mRNA (HS diet-induced increase) in cardiac tissue” value [2] of the same substance?
**A.** The value was “dose-dependently reduced”.

**Q.** And the “Myh6 mRNA in cardiac tissue” value [3]?
**A.** The value was “normalized the decreased expression”.

**Q.** What about the “Myh7b mRNA in cardiac tissue” value [3] of the same substance?
**A.** The value was “dose-dependent reduction”.

**Q.** And the “Myh7 mRNA (HS diet-induced increase) in cardiac tissue” value [3]?
**A.** The value was “dose-dependently blunted”.

Source: patent publication US20140024700A1, “BLOOD-BORNE MIRNAS AS SURROGATE MARKERS OF DRUG EFFICACY FOR CARDIAC CONDITIONS” (miRagen Therapeutics, Inc., priority 2010, published 2014)
